Assay type in all cases: biochemical
The target of data set [1] is T1, purine nucleoside phosphorylase (PNP) (Rattus norvegicus, UniProt P85973).
T1 construct: Rat Erythrocytes; from tissue; host or cells: rat erythrocytes
T1 sequence (P85973 1-289): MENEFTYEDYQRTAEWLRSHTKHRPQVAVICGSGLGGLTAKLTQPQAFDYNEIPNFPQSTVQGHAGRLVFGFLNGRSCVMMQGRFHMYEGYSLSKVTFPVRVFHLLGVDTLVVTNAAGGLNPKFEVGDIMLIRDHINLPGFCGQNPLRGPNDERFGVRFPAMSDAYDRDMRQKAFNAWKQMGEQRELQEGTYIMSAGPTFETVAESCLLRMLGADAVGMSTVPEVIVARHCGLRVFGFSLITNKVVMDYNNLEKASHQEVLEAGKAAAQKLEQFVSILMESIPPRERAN
The data set is described as follows: PNP inhibition, coupled xanthine oxidase method of Kalckar (rat erythrocyte PNP).

Data set [2] deals with T2, purine nucleoside phosphorylase (PNP) (Bos taurus, UniProt P55859).
T2 construct: Calf Spleen; from tissue; host or cells: calf spleen
T2 sequence (P55859 1-289): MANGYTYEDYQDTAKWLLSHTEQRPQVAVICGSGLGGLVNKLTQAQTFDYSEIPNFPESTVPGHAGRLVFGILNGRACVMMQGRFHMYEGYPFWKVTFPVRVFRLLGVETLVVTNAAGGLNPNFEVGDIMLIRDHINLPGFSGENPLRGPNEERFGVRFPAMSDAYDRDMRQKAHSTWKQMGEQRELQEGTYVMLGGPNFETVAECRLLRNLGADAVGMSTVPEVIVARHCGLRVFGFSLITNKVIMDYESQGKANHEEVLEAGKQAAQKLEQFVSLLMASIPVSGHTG
The data set is described as follows: PNP inhibition, coupled xanthine oxidase method of Kalckar (calf spleen PNP). As to the method: (§1) Purine nucleoside phophorylase (PNP) inhibitory activity can be determined by the coupled xanthine oxidase method of Kalckar, using inosine as the substrate (H.M.Kalckar, J. Biol. Chem. 167, 429-443 (1947)). […] The Ki for representative members of the compounds of formula 1 are tabulated in table 1 and are compared to the KM values of the substrate inosine using PNP from various sources. […] The presence of 2'-deoxyguanosine (about 10 µM), a natural metabolite, appears to be important in in vitro activity.

For data set [3], the target named is T3, purine nucleoside phosphorylase (PNP) (Homo sapiens, UniProt P00491).
T3 construct: Human Erythrocytes; from tissue; host or cells: human erythrocytes
T3 sequence (P00491 1-289): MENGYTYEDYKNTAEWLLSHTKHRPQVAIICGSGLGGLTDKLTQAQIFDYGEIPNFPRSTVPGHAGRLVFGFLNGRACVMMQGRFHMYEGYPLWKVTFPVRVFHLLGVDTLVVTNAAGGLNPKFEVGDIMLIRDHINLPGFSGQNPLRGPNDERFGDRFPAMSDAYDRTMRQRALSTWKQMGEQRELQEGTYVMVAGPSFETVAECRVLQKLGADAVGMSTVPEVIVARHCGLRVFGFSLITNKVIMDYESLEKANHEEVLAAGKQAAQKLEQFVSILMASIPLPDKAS
As to the kind of experiment: PNP inhibition, coupled xanthine oxidase method of Kalckar (human erythrocyte PNP).

Substrate in data set [4]: OC[C@H]1O[C@@H](n2cnc3c(O)ncnc32)[C@H](O)[C@@H]1O
The data set is described as follows: PNP inhibition, coupled xanthine oxidase method of Kalckar (calf spleen PNP). The settings on record: other: substrate KM for comparison; pH 7.4. How it is done: as §1

Substrate in data set [5]: OC[C@H]1O[C@@H](n2cnc3c(O)ncnc32)[C@H](O)[C@@H]1O
As to the kind of experiment: PNP inhibition, coupled xanthine oxidase method of Kalckar (rat erythrocyte PNP). The settings on record: other: substrate KM for comparison; pH 7.4.

Substrate in data set [6]: OC[C@H]1O[C@@H](n2cnc3c(O)ncnc32)[C@H](O)[C@@H]1O
As to the kind of experiment: PNP inhibition, coupled xanthine oxidase method of Kalckar (human erythrocyte PNP). The settings on record: other: substrate KM for comparison; pH 7.4.

Like-named read-outs stand apart in the source and are kept apart here.

Molecule `Nc1nc2c(ncn2CCCCC(F)(F)P(=O)(O)O)c(=O)[nH]1` [9-(5-phosphono-5,5-difluoropentyl)guanine] returned a Ki in data set [1] of 3.5e-08 M.
For `Nc1nc2c(ncn2CCCCCC(F)(F)P(=O)(O)O)c(=O)[nH]1` [9-(6-phosphono-6,6-difluorohexyl)guanine], the Ki stood at 3.2e-07 M in data set [2], 2.8e-07 M in data set [3] and 1.8e-07 M in data set [1].
Turning to `CCOP(=O)(O)C(F)(F)CCCCCCn1cnc2c(=O)[nH]c(N)nc21` [9-(7-phosphono-7,7-difluoroheptyl)guanine, ethyl ester], the Ki was found to be 3.3e-06 M in data set [2] (apparent dissociation constant, 1 mM inorganic phosphate, 0.1 M HEPES buffer (pH 7.4), inosine 0.05 mM to 0.15 mM as substrate, read-out: Ki (M) PNP SOURCE Calf Spleen); 8e-07 M in data set [3] (apparent dissociation constant, 1 mM inorganic phosphate, 0.1 M HEPES buffer (pH 7.4), inosine 0.05 mM to 0.15 mM as substrate, read-out: Ki (M) PNP SOURCE Human Erythrocytes); 2.8e-07 M in data set [1].
Take `Nc1nc2c(ncn2CCCCCCC(F)(F)P(=O)(O)O)c(=O)[nH]1` [9-(7-phosphono-7,7-difluoroheptyl)guanine]: the Ki in data set [2] came to 1.5e-07 M; in data set [3], 8e-08 M; in data set [1] it was 9.6e-09 M.
With `O=c1[nH]cnc2c1ncn2CCCCCCC(F)(F)P(=O)(O)O` [9-(7-phosphono-7,7-difluoroheptyl)hypoxanthine], the values for the Ki in data set [2], in data set [3] and in data set [1] were 2.2e-06 M, 1e-07 M and 1.6e-07 M, respectively.
For `Nc1nc(O)c2ncn(CCCCCCCP(=O)(O)O)c2n1` [9-(7-phosphono-heptyl)guanine], the Ki in data set [2] is 1.2e-06 M; in data set [3], 6.8e-07 M; in data set [1] (apparent dissociation constant, 1 mM inorganic phosphate, 0.1 M HEPES buffer (pH 7.4), inosine 0.05 mM to 0.15 mM as substrate, read-out: Ki (M) PNP SOURCE Rat Erythrocytes), 7.5e-08 M.
For the molecule `Nc1nc2c(ncn2CCCCCCCC(F)(F)P(=O)(O)O)c(=O)[nH]1` [9-(8-phosphono-8,8-difluorooctyl)guanine], the figures for the Ki in data set [2], in data set [3] and in data set [1] were 6.2e-07 M, 1.9e-07 M and 4.6e-09 M, respectively.

B1: purine nucleoside phosphorylase (PNP) (Bos taurus) (protein)
chain: T2 sequence (P55859 1-289)
notes: Calf Spleen; from tissue; host or cells: calf spleen
Consider B1, for which the Km in data set [4] came out at 28 x 10⁻⁶ M.

B2: purine nucleoside phosphorylase (PNP) (Rattus norvegicus) (protein)
chain: T1 sequence (P85973 1-289)
notes: Rat Erythrocytes; from tissue; host or cells: rat erythrocytes
On to B2, for which the Km in data set [5] came out at 80 x 10⁻⁶ M.

B3: purine nucleoside phosphorylase (PNP) (Homo sapiens) (protein)
chain: T3 sequence (P00491 1-289)
notes: Human Erythrocytes; from tissue; host or cells: human erythrocytes
Regarding B3, the Km in data set [6] is recorded as 70 x 10⁻⁶ M.

Source of the values: EP0338887B1, “Phosphonoalkylpurine derivatives” (MERRELL DOW PHARMACEUTICALS INC., priority 1988, dated 1989).
